{"source": "patent US9682995B2", "about": "“Amino-substituted isothiazoles” (BAYER PHARMA AKTIENGESELLSCHAFT, priority 2013, dated 2017)", "test_in_all_cases": "Kinase Profiling (KINOMEscan)", "type_in_all_cases": "binding", "key": {"[1]": {"target": "456 kinases (of these 395 non-mutant kinases) (Homo sapiens, UniProt P15056)", "details": "BRAF; 10 μM"}, "[2]": {"target": "456 kinases (of these 395 non-mutant kinases) (Homo sapiens, UniProt Q9P286)", "details": "PAK7; 10 μM"}, "[3]": {"target": "456 kinases (of these 395 non-mutant kinases) (Homo sapiens, UniProt Q9NYL2)", "details": "ZAK; 10 μM"}, "[4]": {"target": "456 kinases (of these 395 non-mutant kinases) (Homo sapiens, UniProt P54764)", "sequence (P54764 20-986 limits assumed, change not shown)": "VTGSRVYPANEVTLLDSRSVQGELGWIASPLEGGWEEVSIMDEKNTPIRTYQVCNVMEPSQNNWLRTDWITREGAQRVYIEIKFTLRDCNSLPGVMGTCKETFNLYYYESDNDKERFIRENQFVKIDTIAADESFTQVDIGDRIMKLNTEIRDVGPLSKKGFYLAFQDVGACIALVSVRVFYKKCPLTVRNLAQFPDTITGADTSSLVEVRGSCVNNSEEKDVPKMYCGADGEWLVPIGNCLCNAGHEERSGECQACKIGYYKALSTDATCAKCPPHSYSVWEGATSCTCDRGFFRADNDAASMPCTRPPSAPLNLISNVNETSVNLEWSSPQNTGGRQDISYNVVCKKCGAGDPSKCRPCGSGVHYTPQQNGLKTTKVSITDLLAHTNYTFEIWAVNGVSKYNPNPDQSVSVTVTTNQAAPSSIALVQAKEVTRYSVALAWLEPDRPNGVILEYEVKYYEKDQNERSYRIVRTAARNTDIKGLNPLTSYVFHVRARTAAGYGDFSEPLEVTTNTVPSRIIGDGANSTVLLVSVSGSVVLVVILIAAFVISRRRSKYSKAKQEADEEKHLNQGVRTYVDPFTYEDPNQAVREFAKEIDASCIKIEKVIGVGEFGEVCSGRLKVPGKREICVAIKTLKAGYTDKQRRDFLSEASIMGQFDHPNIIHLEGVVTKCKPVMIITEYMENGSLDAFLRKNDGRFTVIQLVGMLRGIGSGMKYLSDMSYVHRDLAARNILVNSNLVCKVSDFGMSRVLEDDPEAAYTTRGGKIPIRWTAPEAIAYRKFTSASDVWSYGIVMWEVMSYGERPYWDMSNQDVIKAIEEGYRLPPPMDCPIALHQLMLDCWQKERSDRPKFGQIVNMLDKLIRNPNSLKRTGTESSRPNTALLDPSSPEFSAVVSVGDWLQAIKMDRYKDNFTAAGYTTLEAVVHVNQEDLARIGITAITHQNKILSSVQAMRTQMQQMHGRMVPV", "details": "EPHA4; 10 μM"}, "[5]": {"target": "456 kinases (of these 395 non-mutant kinases) (Homo sapiens, UniProt P42680)", "details": "TEC; 10 μM"}, "[6]": {"target": "456 kinases (of these 395 non-mutant kinases) (Homo sapiens, UniProt O14757)", "details": "CHEK1; 10 μM"}, "[7]": {"target": "456 kinases (of these 395 non-mutant kinases) (Homo sapiens, UniProt Q96RR4)", "sequence (Q96RR4 2-588 limits assumed, change not shown)": "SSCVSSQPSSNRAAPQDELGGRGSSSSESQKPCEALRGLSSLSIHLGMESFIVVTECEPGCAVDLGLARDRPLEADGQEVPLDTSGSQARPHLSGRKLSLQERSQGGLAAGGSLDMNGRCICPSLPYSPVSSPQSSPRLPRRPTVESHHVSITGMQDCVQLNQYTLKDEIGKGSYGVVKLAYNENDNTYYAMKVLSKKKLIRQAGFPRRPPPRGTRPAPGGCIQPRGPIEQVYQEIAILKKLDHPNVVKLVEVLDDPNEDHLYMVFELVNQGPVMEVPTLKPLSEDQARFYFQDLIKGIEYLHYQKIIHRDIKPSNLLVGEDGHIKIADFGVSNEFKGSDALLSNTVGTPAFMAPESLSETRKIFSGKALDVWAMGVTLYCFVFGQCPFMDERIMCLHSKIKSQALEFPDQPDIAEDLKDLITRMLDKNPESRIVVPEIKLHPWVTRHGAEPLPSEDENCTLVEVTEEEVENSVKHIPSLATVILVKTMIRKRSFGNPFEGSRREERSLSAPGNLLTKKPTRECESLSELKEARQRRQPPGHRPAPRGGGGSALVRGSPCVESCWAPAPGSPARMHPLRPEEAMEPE", "details": "CAMKK2; 10 μM"}, "[8]": {"target": "456 kinases (of these 395 non-mutant kinases) (Homo sapiens, UniProt Q16288)", "details": "TRKC; 10 μM"}, "[9]": {"target": "456 kinases (of these 395 non-mutant kinases) (Homo sapiens, UniProt Q15418)", "details": "10 μM"}, "[10]": {"target": "456 kinases (of these 395 non-mutant kinases) (Homo sapiens, UniProt Q12852)", "details": "DLK; 10 μM"}, "[11]": {"target": "456 kinases (of these 395 non-mutant kinases) (Homo sapiens, UniProt P10721)", "sequence (P10721 26-976 limits assumed, change not shown)": "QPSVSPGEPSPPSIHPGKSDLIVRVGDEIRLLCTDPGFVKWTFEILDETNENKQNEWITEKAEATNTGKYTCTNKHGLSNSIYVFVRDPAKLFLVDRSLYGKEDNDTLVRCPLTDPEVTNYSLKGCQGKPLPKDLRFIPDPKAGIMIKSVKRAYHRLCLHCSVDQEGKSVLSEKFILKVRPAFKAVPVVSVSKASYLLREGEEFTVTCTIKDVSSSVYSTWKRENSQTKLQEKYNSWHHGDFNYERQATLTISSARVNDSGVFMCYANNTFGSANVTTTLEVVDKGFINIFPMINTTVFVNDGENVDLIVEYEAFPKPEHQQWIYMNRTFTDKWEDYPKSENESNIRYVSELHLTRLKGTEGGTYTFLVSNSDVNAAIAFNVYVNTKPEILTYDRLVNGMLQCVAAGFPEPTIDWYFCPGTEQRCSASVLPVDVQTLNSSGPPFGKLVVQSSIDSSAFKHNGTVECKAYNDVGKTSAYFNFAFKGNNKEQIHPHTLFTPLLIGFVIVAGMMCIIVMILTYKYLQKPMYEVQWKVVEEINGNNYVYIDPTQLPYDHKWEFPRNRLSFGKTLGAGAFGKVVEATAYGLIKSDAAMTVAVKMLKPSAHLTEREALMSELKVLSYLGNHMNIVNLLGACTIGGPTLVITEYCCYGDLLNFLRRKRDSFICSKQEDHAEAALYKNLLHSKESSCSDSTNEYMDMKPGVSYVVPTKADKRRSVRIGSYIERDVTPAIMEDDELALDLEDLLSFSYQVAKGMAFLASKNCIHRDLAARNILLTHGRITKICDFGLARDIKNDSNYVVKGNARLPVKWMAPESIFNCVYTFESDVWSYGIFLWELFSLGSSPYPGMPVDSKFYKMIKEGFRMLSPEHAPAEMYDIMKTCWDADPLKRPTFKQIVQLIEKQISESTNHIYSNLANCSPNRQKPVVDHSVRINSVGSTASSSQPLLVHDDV", "details": "10 μM"}, "[12]": {"target": "456 kinases (of these 395 non-mutant kinases) (Homo sapiens, UniProt Q13523)", "sequence (Q13523 2-1007 limits assumed, change not shown)": "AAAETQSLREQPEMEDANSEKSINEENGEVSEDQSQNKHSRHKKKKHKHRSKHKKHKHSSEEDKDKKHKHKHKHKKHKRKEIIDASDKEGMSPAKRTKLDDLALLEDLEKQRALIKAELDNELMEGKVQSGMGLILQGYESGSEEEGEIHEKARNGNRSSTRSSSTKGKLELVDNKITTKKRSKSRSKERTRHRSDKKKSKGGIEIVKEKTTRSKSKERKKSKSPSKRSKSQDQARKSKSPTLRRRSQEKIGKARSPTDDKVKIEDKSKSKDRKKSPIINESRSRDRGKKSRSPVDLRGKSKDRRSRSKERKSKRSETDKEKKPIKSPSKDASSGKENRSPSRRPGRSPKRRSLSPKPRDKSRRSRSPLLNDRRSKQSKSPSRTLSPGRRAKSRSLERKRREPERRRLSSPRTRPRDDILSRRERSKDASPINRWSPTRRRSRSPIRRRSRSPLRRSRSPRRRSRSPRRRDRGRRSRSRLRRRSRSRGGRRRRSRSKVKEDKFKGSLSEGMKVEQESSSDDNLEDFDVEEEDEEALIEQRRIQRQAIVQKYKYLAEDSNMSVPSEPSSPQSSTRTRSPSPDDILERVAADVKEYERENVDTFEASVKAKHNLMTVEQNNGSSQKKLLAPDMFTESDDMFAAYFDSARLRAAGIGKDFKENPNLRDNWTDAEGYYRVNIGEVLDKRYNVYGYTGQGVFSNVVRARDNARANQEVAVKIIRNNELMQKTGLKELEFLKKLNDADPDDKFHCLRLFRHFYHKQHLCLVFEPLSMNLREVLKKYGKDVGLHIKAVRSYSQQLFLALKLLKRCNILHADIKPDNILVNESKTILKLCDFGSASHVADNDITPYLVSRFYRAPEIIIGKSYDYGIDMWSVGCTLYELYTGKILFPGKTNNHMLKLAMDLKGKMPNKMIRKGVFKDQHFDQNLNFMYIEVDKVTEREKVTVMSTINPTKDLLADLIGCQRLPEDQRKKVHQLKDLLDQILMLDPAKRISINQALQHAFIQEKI", "details": "PRP4; 10 μM"}, "[13]": {"target": "456 kinases (of these 395 non-mutant kinases) (Homo sapiens, UniProt P78368)", "details": "CSNK1G2; 10 μM"}, "[14]": {"target": "456 kinases (of these 395 non-mutant kinases) (Homo sapiens, UniProt P29320)", "sequence (P29320 21-983 limits assumed, change not shown)": "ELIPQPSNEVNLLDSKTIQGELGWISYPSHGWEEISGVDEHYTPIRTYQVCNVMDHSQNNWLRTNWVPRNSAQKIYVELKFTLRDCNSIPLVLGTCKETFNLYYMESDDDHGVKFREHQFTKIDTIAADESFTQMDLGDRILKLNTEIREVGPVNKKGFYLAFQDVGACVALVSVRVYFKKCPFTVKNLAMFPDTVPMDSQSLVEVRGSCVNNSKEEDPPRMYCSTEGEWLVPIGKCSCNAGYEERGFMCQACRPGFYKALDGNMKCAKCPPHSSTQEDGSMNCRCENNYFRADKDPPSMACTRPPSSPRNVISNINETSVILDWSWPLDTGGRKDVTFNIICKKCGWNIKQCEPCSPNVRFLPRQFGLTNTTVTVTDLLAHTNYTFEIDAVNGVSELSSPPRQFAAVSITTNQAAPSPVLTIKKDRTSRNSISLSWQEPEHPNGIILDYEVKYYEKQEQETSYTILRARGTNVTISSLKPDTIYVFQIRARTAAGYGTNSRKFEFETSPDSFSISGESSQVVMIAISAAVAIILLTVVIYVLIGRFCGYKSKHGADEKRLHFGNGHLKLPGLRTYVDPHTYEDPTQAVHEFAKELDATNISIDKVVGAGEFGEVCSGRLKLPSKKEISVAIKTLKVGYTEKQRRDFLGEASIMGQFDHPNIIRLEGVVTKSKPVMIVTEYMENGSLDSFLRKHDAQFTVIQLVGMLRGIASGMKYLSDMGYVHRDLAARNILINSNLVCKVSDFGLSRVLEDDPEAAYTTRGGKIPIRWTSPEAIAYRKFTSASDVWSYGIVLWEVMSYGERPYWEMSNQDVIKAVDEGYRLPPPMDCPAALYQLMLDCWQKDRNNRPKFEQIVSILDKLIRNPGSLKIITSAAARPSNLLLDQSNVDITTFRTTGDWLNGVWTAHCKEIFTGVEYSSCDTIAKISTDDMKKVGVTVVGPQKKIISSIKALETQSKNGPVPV", "details": "EPHA3; 10 μM"}, "[15]": {"target": "456 kinases (of these 395 non-mutant kinases) (Homo sapiens, UniProt Q06418)", "details": "TYRO3; 10 μM"}, "[16]": {"target": "456 kinases (of these 395 non-mutant kinases) (Homo sapiens, UniProt P10721, V559D/V654A)", "sequence (P10721 26-976 V559D/V654A limits assumed)": "as the sequence (P10721 26-976 limits assumed, change not shown) above, with V534D, V629A counted along it", "details": "KIT(V559D,V654A); 10 μM"}, "[17]": {"target": "456 kinases (of these 395 non-mutant kinases) (Homo sapiens, UniProt Q9P1W9)", "details": "PIM2; 10 μM"}, "[18]": {"target": "456 kinases (of these 395 non-mutant kinases) (Homo sapiens, UniProt Q9BRS2)", "details": "RIOK1; 10 μM"}, "[19]": {"target": "456 kinases (of these 395 non-mutant kinases) (Homo sapiens, UniProt P30530)", "details": "AXL; 10 μM"}, "[20]": {"target": "456 kinases (of these 395 non-mutant kinases) (Homo sapiens, UniProt Q16513)", "details": "PKN2; 10 μM"}, "[21]": {"target": "456 kinases (of these 395 non-mutant kinases) (Homo sapiens, UniProt P00533, L858R)", "details": "EGFR(L858R); 10 μM"}, "[22]": {"target": "456 kinases (of these 395 non-mutant kinases) (Homo sapiens, UniProt Q96BR1)", "details": "SGK3; 10 μM"}, "[23]": {"target": "456 kinases (of these 395 non-mutant kinases) (Homo sapiens, UniProt Q32MK0)", "details": "MLCK; 10 μM"}, "[24]": {"target": "456 kinases (of these 395 non-mutant kinases) (Homo sapiens, UniProt Q7KZI7)", "details": "MARK2; 10 μM"}, "[25]": {"target": "456 kinases (of these 395 non-mutant kinases) (Homo sapiens, UniProt P07949, M918T)", "details": "RET(M918T); 10 μM"}, "[26]": {"target": "456 kinases (of these 395 non-mutant kinases) (Homo sapiens, UniProt Q15831)", "details": "LKB1; 10 μM"}, "[27]": {"target": "456 kinases (of these 395 non-mutant kinases) (Homo sapiens, UniProt Q12851)", "details": "MAP4K2; 10 μM"}, "[28]": {"target": "456 kinases (of these 395 non-mutant kinases) (Homo sapiens, UniProt P22694)", "details": "PKAC-beta; 10 μM"}, "[29]": {"target": "456 kinases (of these 395 non-mutant kinases) (Homo sapiens, UniProt P19525)", "sequence (P19525 2-551 limits assumed, change not shown)": "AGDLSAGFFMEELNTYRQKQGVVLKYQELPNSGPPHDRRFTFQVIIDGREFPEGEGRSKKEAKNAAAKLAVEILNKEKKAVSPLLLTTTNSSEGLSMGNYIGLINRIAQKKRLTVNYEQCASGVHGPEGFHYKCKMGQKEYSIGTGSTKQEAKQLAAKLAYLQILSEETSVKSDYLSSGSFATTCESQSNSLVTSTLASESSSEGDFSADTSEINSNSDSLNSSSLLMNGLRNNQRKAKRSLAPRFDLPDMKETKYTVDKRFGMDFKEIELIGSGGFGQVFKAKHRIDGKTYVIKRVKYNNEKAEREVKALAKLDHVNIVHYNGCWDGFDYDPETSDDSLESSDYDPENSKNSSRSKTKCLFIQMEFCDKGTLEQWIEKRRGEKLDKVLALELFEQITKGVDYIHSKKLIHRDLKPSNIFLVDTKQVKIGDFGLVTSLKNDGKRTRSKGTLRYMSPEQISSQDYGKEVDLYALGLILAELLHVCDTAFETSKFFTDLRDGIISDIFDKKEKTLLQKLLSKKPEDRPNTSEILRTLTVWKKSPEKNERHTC", "details": "PRKR; 10 μM"}, "[30]": {"target": "456 kinases (of these 395 non-mutant kinases) (Homo sapiens, UniProt Q96SB4)", "details": "SRPK1; 10 μM"}, "[31]": {"target": "456 kinases (of these 395 non-mutant kinases) (Homo sapiens, UniProt P14616)", "details": "INSRR; 10 μM"}, "[32]": {"target": "456 kinases (of these 395 non-mutant kinases) (Homo sapiens, UniProt Q9BX84)", "details": "TRPM6; 10 μM"}}}
{"smiles": "CCc1ccccc1NC(=O)c1c(C)nsc1Nc1cnc2cc(F)ccc2n1", "note": "[Example 20, N-(2-Ethylphenyl)-5-[(6-fluoroquinoxalin-2-yl)amino]-3-methyl-1,2-thiazole-4-carboxamide]", "values": [{"measurement": "% Ctrl @ 10 μM", "setting": "[1]", "value": 82, "unit": "% Ctrl"}, {"measurement": "% Ctrl @ 10 μM", "setting": "[2]", "value": 94, "unit": "% Ctrl"}, {"measurement": "% Ctrl @ 10 μM", "setting": "[3]", "value": 78, "unit": "% Ctrl"}, {"measurement": "% Ctrl @ 10 μM", "setting": "[4]", "value": 100, "unit": "% Ctrl"}, {"measurement": "% Ctrl @ 10 μM", "setting": "[5]", "value": 100, "unit": "% Ctrl"}, {"measurement": "% Ctrl @ 10 μM", "setting": "[6]", "value": 73, "unit": "% Ctrl"}, {"measurement": "% Ctrl @ 10 μM", "setting": "[7]", "value": 74, "unit": "% Ctrl"}, {"measurement": "% Ctrl @ 10 μM", "setting": "[8]", "value": 93, "unit": "% Ctrl"}, {"measurement": "% Ctrl @ 10 μM", "setting": "[9]; RSK1(Kin.Dom.1-N-terminal)", "value": 95, "unit": "% Ctrl"}, {"measurement": "% Ctrl @ 10 μM", "setting": "[9]; RSK1(Kin.Dom.2-C-terminal)", "value": 86, "unit": "% Ctrl"}, {"measurement": "% Ctrl @ 10 μM", "setting": "[10]", "value": 94, "unit": "% Ctrl"}, {"measurement": "% Ctrl @ 10 μM", "setting": "[11]; KIT-autoinhibited", "value": 100, "unit": "% Ctrl"}, {"measurement": "% Ctrl @ 10 μM", "setting": "[11]; KIT", "value": 98, "unit": "% Ctrl"}, {"measurement": "% Ctrl @ 10 μM", "setting": "[12]", "value": 87, "unit": "% Ctrl"}, {"measurement": "% Ctrl @ 10 μM", "setting": "[13]", "value": 95, "unit": "% Ctrl"}, {"measurement": "% Ctrl @ 10 μM", "setting": "[14]", "value": 95, "unit": "% Ctrl"}, {"measurement": "% Ctrl @ 10 μM", "setting": "[15]", "value": 56, "unit": "% Ctrl"}, {"measurement": "% Ctrl @ 10 μM", "setting": "[16]", "value": 96, "unit": "% Ctrl"}, {"measurement": "% Ctrl @ 10 μM", "setting": "[17]", "value": 100, "unit": "% Ctrl"}, {"measurement": "% Ctrl @ 10 μM", "setting": "[18]", "value": 100, "unit": "% Ctrl"}, {"measurement": "% Ctrl @ 10 μM", "setting": "[19]", "value": 90, "unit": "% Ctrl"}, {"measurement": "% Ctrl @ 10 μM", "setting": "[20]", "value": 100, "unit": "% Ctrl"}, {"measurement": "% Ctrl @ 10 μM", "setting": "[21]", "value": 96, "unit": "% Ctrl"}, {"measurement": "% Ctrl @ 10 μM", "setting": "[22]", "value": 100, "unit": "% Ctrl"}, {"measurement": "% Ctrl @ 10 μM", "setting": "[23]", "value": 88, "unit": "% Ctrl"}, {"measurement": "% Ctrl @ 10 μM", "setting": "[24]", "value": 83, "unit": "% Ctrl"}, {"measurement": "% Ctrl @ 10 μM", "setting": "[25]", "value": 78, "unit": "% Ctrl"}, {"measurement": "% Ctrl @ 10 μM", "setting": "[26]", "value": 100, "unit": "% Ctrl"}, {"measurement": "% Ctrl @ 10 μM", "setting": "[27]", "value": 99, "unit": "% Ctrl"}, {"measurement": "% Ctrl @ 10 μM", "setting": "[28]", "value": 82, "unit": "% Ctrl"}, {"measurement": "% Ctrl @ 10 μM", "setting": "[29]", "value": 100, "unit": "% Ctrl"}, {"measurement": "% Ctrl @ 10 μM", "setting": "[30]", "value": 86, "unit": "% Ctrl"}, {"measurement": "% Ctrl @ 10 μM", "setting": "[31]", "value": 76, "unit": "% Ctrl"}, {"measurement": "% Ctrl @ 10 μM", "setting": "[32]", "value": 83, "unit": "% Ctrl"}]}
